Experiments:
[1] = test system: human umbilical vein endothelial cells (HUVECs); assay: Proliferation of HUVECs (CyQUANT kit); format: cell-based; details: 48 hours with peptide, negative control (untreated) = 100
Procedure: In order to investigate the effect of the 4 peptides prepared in Example 1 on blood vessel formation, human umbilical vein endothelial cells (HUVECs) were treated with the peptide of the present invention and their proliferation was observed.
HUVECs were cultured in endothelial cell basal medium-2 (EBM-2, Clonetics Co., San Diego, USA) containing 2% fetal bovine serum (FBS). The cultured HUVECs were transferred to a 96-well plate, with 1000 cells per each well. After culturing for 24 hours followed by addition of the 4 peptides of the peptide of the present invention to each well, they were further cultured for 48 hours. The cells treated with VEGF instead of the peptide of the present invention and those treated with nothing were cultured under the same condition, as positive control group and negative control group, respectively. Upon completion of the culturing, the degree of cell proliferation was measured using the CyQUANT kit (Invitrogen, USA).

HUVECs = assay: Migration of HUVECs through polycarbonate filter chamber; format: cell-based, human; details: 37° C. for 10 hours, negative control (untreated) = 100
Procedure: In order to investigate the effect of the 4 peptides prepared in Example 1 on blood vessel formation, migration of HUVECs was measured.
The bottom portion of a chamber of a 24-well plate (Corning Costar, USA) having a polycarbonate filter with pores therebelow was coated with 0.5 mg/mL collagen type 1 ([…]). After adding EBM-2 containing the 4 peptides of the peptide of the present invention to the bottom portion of the chamber, HUVECs were inoculated at the upper portion of the chamber, with 1×10^5 cells per well. After incubation at 37° C. for 10 hours, the cells that had passed through the polycarbonate filter were fixed with methanol, stained with hematoxylin, and counted under a microscope.

VEGF
Cell proliferation (%) [1]: 166.0% | Cell migration (%) (HUVECs): 146.3%

SDRGA (Pep_8 Artificial Peptide for Promotion of Angiogenesis)
Cell proliferation (%) [1]: 209.2% | Cell migration (%) (HUVECs): 147.0%

PKES (Pep_9 Artificial Peptide for Promotion of Angiogenesis)
Cell proliferation (%) [1]: 212.5% | Cell migration (%) (HUVECs): 156.4%

SEGQK (Pep_7 Artificial Peptide for Promotion of Angiogenesis)
Cell proliferation (%) [1]: 203.3% | Cell migration (%) (HUVECs): 155.4%

NQES (Pep_10 Artificial Peptide for Promotion of Angiogenesis)
Cell proliferation (%) [1]: 146.5% | Cell migration (%) (HUVECs): 173.2%

— patent US9938320B2, “Peptides for promoting angiogenesis and use thereof” (INDUSTRY-ACADEMIC COOPERATION FOUNDATION, SOOKMYUNG WOMEN'S …, priority 2010, dated 2018)
